Assay results from patent publication US4730063A, “Alkali metal 2,5-dihydro-3-ethoxycarbonyl-2-[(substituted phenyl)amino]-4-furanyloxides” (Pennwalt Corportion, priority 1986, dated 1988).

Tested on: carrageenan-induced rat paw edema
Test: carrageenan-induced rat paw edema assay
Type: in vivo
Details: oral doses of 50 mg/kg

| Structure (SMILES) | inhibition of edema [%] |
| --- | --- |
| CCOC(=O)C1=C(O)COC1=Nc1ccccc1 [Example 1, potassium 2,5-dihydro-3-ethoxycarbonyl-2-(phenylimino)-4-furanyloxide] | 31 |
| CCOC(=O)C1=C(O)COC1=Nc1cccc([N+](=O)[O-])c1 [Example 4, potassium 2,5-dihydro-3-ethoxycarbonyl-2-[(3-nitrophenyl)imino]-4-furanyloxide] | 28.3 |
